From US6008227A, “Process for blocking 5-HT and dopamine uptake with biologically active tropane derivatives” (Wake Forest University, priority 1993, dated 1999)
Entries after “also recorded” stand apart in the source; their conditions may differ. Read-outs that look alike come from different tables or passages of the source.

Experiments:
[1] = target: T1, 5-HT transporter (Rattus norvegicus, UniProt P31652); assay: Displacement of [^3 H]paroxetine binding to 5-HT transporter sites in rat frontal cortex; parameters: from tissue; host or cells: rat frontal cortex; details: for displacement of [^3 H]paroxetine binding, in words: FIG. 2 / text; for selectivity between dopamine and 5-HT transporters, in words: binding assays; for times more potent than cocaine at 5-HT transporter sites: vs cocaine, [^3 H]paroxetine binding; for selectivity towards the 5-HT transporter in terms of binding and inhibition, in words: binding and uptake inhibition
T1 sequence (P31652 whole entry): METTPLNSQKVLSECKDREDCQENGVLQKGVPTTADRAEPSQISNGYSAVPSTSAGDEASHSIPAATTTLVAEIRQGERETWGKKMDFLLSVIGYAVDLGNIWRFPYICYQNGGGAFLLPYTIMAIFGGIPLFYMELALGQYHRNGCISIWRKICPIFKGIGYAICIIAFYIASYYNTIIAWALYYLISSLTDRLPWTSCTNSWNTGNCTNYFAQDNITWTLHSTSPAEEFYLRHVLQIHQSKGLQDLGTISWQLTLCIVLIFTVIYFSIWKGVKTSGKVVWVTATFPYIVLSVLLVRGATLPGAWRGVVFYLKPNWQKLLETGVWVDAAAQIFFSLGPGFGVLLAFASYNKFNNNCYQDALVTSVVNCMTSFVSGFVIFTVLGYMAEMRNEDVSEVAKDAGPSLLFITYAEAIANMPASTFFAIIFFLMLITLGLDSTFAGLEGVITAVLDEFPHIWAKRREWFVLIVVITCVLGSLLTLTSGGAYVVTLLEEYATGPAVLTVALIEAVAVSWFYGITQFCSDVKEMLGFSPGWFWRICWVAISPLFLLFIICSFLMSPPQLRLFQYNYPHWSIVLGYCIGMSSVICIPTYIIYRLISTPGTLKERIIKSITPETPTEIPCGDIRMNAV

[2] = target: T2, dopamine transporter (Rattus norvegicus, UniProt P23977); assay: Displacement of [^125 I]RTI-55 binding to dopamine transporters in rat striatal membranes; details: for binding ratio: 5-HT K1 / DA K1, higher numbers demonstrate relatively greater dopamine transporter potency; for Ki: [^125 I]RTI-55 10-20 pM, rat striatal membranes; for displacement of [^125 I]RTI-55 binding, in words: FIG. 1
T2 construct: was used to label dopamine transporters in rat striatal membranes; from tissue; host or cells: rat striatal membranes
T2 sequence (P23977 whole entry): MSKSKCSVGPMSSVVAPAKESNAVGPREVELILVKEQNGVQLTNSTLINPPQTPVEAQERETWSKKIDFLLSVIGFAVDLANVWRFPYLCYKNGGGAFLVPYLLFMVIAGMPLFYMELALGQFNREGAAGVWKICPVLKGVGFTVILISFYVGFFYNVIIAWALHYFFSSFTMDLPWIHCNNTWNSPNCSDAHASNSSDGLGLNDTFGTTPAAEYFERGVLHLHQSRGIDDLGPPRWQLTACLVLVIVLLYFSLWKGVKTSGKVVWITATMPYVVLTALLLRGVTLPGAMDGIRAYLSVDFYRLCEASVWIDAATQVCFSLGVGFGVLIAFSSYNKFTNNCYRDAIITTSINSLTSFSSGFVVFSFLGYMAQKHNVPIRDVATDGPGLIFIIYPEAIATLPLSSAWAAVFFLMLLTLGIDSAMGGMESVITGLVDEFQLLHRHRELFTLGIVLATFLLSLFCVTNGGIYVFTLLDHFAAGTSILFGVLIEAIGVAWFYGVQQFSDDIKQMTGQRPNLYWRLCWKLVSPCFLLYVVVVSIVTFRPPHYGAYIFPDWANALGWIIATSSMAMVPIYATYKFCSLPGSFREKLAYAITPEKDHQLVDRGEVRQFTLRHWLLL

[3] = target: T2, dopamine transporter; assay: Inhibition of [3H]dopamine uptake into dissociated striatal cells from fetal and adult rat brain; assay type: cell-based; details: for uptake ratio: 5-HT uptake IC50 / DA uptake IC50; for inhibition of [3H]dopamine uptake into striatal cells, in words: FIG. 3; for dopamine: 5-HT ratio: regardless of the assay used (binding or uptake)
[4] = target: T1, 5-HT transporter; assay: Inhibition of [^3 H]5-HT uptake in dissociated frontal cortex cells from fetal and adult rat brain; assay type: cell-based; parameters: from tissue; host or cells: rat frontal cortex; details: for IC50: frontal cortex cells, fetal and adult rat brain; for blocking [^3 H]5-HT uptake in cortical cells, in words: FIG. 4
[5] = read-out: [^3 H] paroxetine K1, [^3 H]paroxetine, rat frontal cortex
[6] = vs cocaine, [^125 I]RTI-55 binding

## CCC(=O)[C@H]1[C@@H](c2ccccc2C)C[C@@H]2CC[C@H]1N2C (relative stereo) [WF-22]
[1]; [5]
  Ki: 1060 ± 395 nM
[2]
  binding ratio: 1.30
[2]; read-out:
  Ki: 814 ± 220 nM

## CCC(=O)[C@H]1[C@@H](c2cccc3ccccc23)C[C@@H]2CC[C@H]1N2C (relative stereo) [WF-30]
[3]
  IC50: 3.66 ± 1.91 nM
  uptake ratio: 1.46
[4]
  IC50: 5.43 nM
[2]
  binding ratio: 3.91
  Ki: 5.34 ± 1.27 nM

## CC(=O)[C@@H]1[C@@H](c2ccccc2)C[C@@H]2CC[C@H]1N2C (relative stereo) [WF-2]
[1]
  Ki: > 10000 nM
[2]
  Ki: 7270 ± 1210 nM

## CC(=O)[C@@H]1[C@@H](c2ccc(C)cc2)C[C@@H]2CC[C@H]1N2C (relative stereo) [WF-3]
[1]
  Ki: > 10000 nM
[2]
  Ki: 775 ± 57 nM

## CCC(=O)[C@H]1[C@@H](CC)C[C@@H]2CC[C@H]1N2C (relative stereo) [WF-18]
[2]
  Ki: > 50000 nM

## CCC(=O)[C@H]1[C@@H](c2ccc3ccccc3c2)C[C@@H]2CC[C@H]1N2C (relative stereo) [WF-23]
[3]
  IC50: 0.027 ± 0.016 nM
  uptake ratio: 10.0
  inhibition of [3H]dopamine uptake into striatal cells, in words: the most potent analog in inhibiting dopamine uptake
  dopamine: 5-HT ratio: 3-4
[4]
  blocking [^3 H]5-HT uptake in cortical cells, in words: significantly more potent than cocaine in blocking [^3 H]5-HT uptake
  IC50: 0.27 nM
[1]
  Ki: 0.63 ± 0.2 nM
  displacement of [^3 H]paroxetine binding, in words: the most potent compounds in displacing [^3 H]paroxetine binding
  selectivity between dopamine and 5-HT transporters, in words: like cocaine, with little selectivity between the two transporters
  times more potent than cocaine at 5-HT transporter sites: 480 times
[2]
  binding ratio: 3.1
  Ki: 0.2 ± 0.04 nM
[2]; vs cocaine, dopamine and 5-HT transporter binding
  times more potent than cocaine at both transporters: 500-800 times

## CCC(=O)[C@H]1[C@@H](c2ccc(C)c3ccccc23)C[C@@H]2CC[C@H]1N2C (relative stereo) [WF-27]
[3]
  IC50: 260 ± 98 nM
[4]
  IC50: 14.6 nM
[1]
  selectivity towards the 5-HT transporter in terms of binding and inhibition, in words: considerable selectivity towards the 5-HT transporter
[2]
  binding ratio: 0.358
  Ki: 25.1 ± 0.5 nM

## CCC(=O)[C@H]1[C@@H](c2ccc3cc(OC)ccc3c2)C[C@@H]2CC[C@H]1N2C (relative stereo) [WF-33]
[1]
  displacement of [^3 H]paroxetine binding, in words: the most potent compounds in displacing [^3 H]paroxetine binding
  times more potent than cocaine at 5-HT transporter sites: 140 times
[1]; vs WF-23
  times less potent than WF-23 in displacing [^3 H]paroxetine binding: 4 times
[2]
  displacement of [^125 I]RTI-55 binding, in words: the most potent of these compounds; also recorded: equipotent in displacing [^125 I]RTI-55 binding

## CCC(=O)[C@H]1[C@@H](c2ccc(C)cc2)C[C@@H]2CC[C@H]1N2C (relative stereo) [WF-11]
[3]
  IC50: 2.21 ± 1.7 nM
  uptake ratio: 140
[3]; uptake assays
  times more potent in inhibiting dopamine uptake than 5-HT uptake: 140 times
[4]
  IC50: 310 ± 104 nM
[1]
  displacement of [^3 H]paroxetine binding, in words: approximately equipotent with cocaine in displacing [^3 H]paroxetine binding
  selectivity between dopamine and 5-HT transporters, in words: relatively more selective for dopamine transporters
  times more potent than cocaine at 5-HT transporter sites: twice
[2]
  binding ratio: 15.9
  Ki: 8.2 ± 1.6 nM
[2]; [6]
  times more potent than cocaine in binding to dopamine transporters: 20 times

## CCc1ccc([C@H]2C[C@@H]3CC[C@H]([C@H]2C(C)=O)N3C)cc1 (relative stereo) [WF-9]
[3]
  IC50: 1160 ± 266 nM
  uptake ratio: 0.0082
[4]
  IC50: 9.5 ± 5.4 nM
[1]
  selectivity towards the 5-HT transporter in terms of binding and inhibition, in words: considerable selectivity towards the 5-HT transporter
[2]
  binding ratio: 0.51
  Ki: 152 ± 24 nM

## CCc1ccc([C@H]2C[C@@H]3CC[C@H]([C@@H]2C(C)=O)N3C)cc1 (relative stereo) [WF-16]
[1]
  Ki: > 10000 nM
[2]
  Ki: 2290 ± 360 nM

## CCC(=O)C1C(c2ccc3ccccc3c2)CC2CCC1N2C (single isomer, unassigned) [WF-23(1)]
[1]
  selectivity between dopamine and 5-HT transporters, in words: the same as the racemic mixture of WF-23
[2]
  binding ratio: 4.2
  Ki: 113 ± 26 nM

## CC(=O)[C@H]1[C@@H](c2ccc3ccccc3c2)C[C@@H]2CC[C@H]1N2C (relative stereo) [WF-32]
[2]
  binding ratio: 4.27
  Ki: 0.248 ± 0.15 nM

## CCC(=O)[C@H]1[C@@H](c2ccc(C(C)(C)C)cc2)C[C@@H]2CC[C@H]1N2C (relative stereo) [WF-26]
[2]
  binding ratio: 0.84

## CC(=O)[C@H]1[C@@H](c2ccc(F)cc2)C[C@@H]2CC[C@H]1N2C (relative stereo) [WF-7]
[2]
  binding ratio: 12.1

## CCC(=O)[C@@H]1[C@@H](c2ccccc2C)C[C@@H]2CC[C@H]1N2C (relative stereo) [WF-21]
[1]; [5]
  Ki: > 10000 nM

## CC(=O)[C@@H]1[C@@H](c2cccc3ccccc23)C[C@@H]2CC[C@H]1N2C (relative stereo) [WF-15]
[2]
  Ki: 97 ± 21 nM

## Cc1ccc([C@H]2C[C@@H]3CC[C@H]([C@@H]2C(=O)C(C)C)N3C)cc1 (relative stereo) [WF-17]
[1]
  Ki: > 10000 nM
[2]
  Ki: 2130 ± 266 nM

## CCC(=O)C1C(c2ccc3ccccc3c2)CC2CCC1N2C (single isomer, unassigned) [WF-23(2)]
[3]
  dopamine: 5-HT ratio: 3-4
[1]
  Ki: 0.127 ± 0.05 nM
  displacement of [^3 H]paroxetine binding, in words: also potent vs. [^3 H]paroxetine binding
  selectivity between dopamine and 5-HT transporters, in words: the same as the racemic mixture of WF-23
[2]
  IC50: ~0.03 nM
  binding ratio: 3.96
  Ki: 0.032 ± 0.007 nM

## CCC(=O)[C@H]1[C@@H](c2ccc(-c3ccccc3)cc2)C[C@@H]2CC[C@H]1N2C (relative stereo) [WF-35]
[2]
  binding ratio: 1.88

## COC(=O)[C@@H]1[C@@H](c2ccccc2)C[C@@H]2CC[C@H]1N2C (relative stereo) [WF-6]
[2]
  Ki: 2060 ± 545 nM

## CC(=O)[C@H]1[C@@H](c2ccc(C)cc2)C[C@@H]2CC[C@H]1N2C (relative stereo) [WF-4]
[3]
  IC50: 13.8 ± 2.6 nM
  uptake ratio: 24
[4]
  IC50: 330 ± 75 nM
[2]
  binding ratio: 12.4
  Ki: 9.8 ± 0.5 nM

## CCC(=O)[C@@H]1[C@@H](c2ccc3cc(OC)ccc3c2)C[C@@H]2CC[C@H]1N2C (relative stereo) [WF-34]
[1]
  Ki: 206 ± 81 nM
[2]
  binding ratio: 3.76
  Ki: 54.7 ± 15 nM

## CCC(=O)[C@@H]1[C@@H](CC)C[C@@H]2CC[C@H]1N2C (relative stereo) [WF-14]
[1]
  Ki: > 10000 nM
[2]
  Ki: > 50000 nM

## COC(=O)[C@H]1[C@@H](c2ccccc2)C[C@@H]2CC[C@H]1N2C (relative stereo) [WF-10]
[2]
  Ki: 98.8 ± 12.2 nM

## CC(=O)[C@@H]1[C@@H](c2ccc(F)cc2)C[C@@H]2CC[C@H]1N2C (relative stereo) [WF-1]
[1]
  Ki: > 10000 nM
[2]
  Ki: 929 ± 160 nM

## CCC(=O)[C@H]1[C@@H](C2CCCCC2)C[C@@H]2CC[C@H]1N2C (relative stereo) [WF-19]
[1]
  Ki: > 10000 nM

## CCC(=O)[C@H]1[C@@H](c2ccc(C(C)C)cc2)C[C@@H]2CC[C@H]1N2C (relative stereo) [WF-31]
[3]
  inhibition of [3H]dopamine uptake into striatal cells, in words: considerably less potent in blocking [3H]dopamine uptake
[3]; read-out: DA uptake IC50, striatal cells, fetal and adult rat brain
  IC50: 5840 ± 2600 nM
[4]
  blocking [^3 H]5-HT uptake in cortical cells, in words: significantly more potent than cocaine in blocking [^3 H]5-HT uptake
  IC50: 46.9 nM
[4]; uptake assays
  times more potent in inhibiting 5-HT uptake than dopamine uptake: 120 times
[1]
  displacement of [^3 H]paroxetine binding, in words: significantly more potent in displacing [^3 H]paroxetine than cocaine
  selectivity towards the 5-HT transporter in terms of binding and inhibition, in words: considerable selectivity towards the 5-HT transporter
  times more potent than cocaine at 5-HT transporter sites: 8 times
[1]; [5]
  Ki: 54.5 ± 8.9 nM
[2]
  binding ratio: 0.089
  displacement of [^125 I]RTI-55 binding, in words: less potent in displacing [^125 I]RTI-55 than cocaine
[2]; read-out:
  Ki: 615 ± 98 nM
[2]; [6]
  times less potent than cocaine at dopamine transporters: 2.5 times

## CCC(=O)[C@@H]1[C@@H](c2ccc(C)cc2)C[C@@H]2CC[C@H]1N2C (relative stereo) [WF-13]
[1]
  Ki: > 10000 nM
[2]
  Ki: 764 ± 84 nM

## CCC(=O)[C@@H]1[C@@H](c2ccc3ccccc3c2)C[C@@H]2CC[C@H]1N2C (relative stereo) [WF-24]
[3]
  IC50: 5.9 ± 2.4 nM
[2]
  binding ratio: 6.53
  Ki: 2.51 ± 0.82 nM

## CC(=O)[C@H]1[C@@H](c2cccc3ccccc23)C[C@@H]2CC[C@H]1N2C (relative stereo) [WF-8]
[3]
  IC50: 20.7 ± 7.7 nM
[4]
  IC50: 4.55 nM
